Measurements reported in PMC3318891, “Insights into the In Vivo Regulation of Glutamate Dehydrogenase from the Foot Muscle of an Estivating Land Snail” (Enzyme Research, 2012).
Values belong to the compound of their own block, whether it stands above or below them.

Key:
Type in all cases: biochemical
[1] = test system: T1, 10 day estivated Otala lactea foot muscle GDH; assay: NADH absorbance at […] nm, glutamate-oxidizing direction; settings: activation constant (half-maximal activation, not association constant); suboptimal substrates 10 mM L-glutamate, 0.5 mM NAD+; Tris-HCl pH 8.0
T1 construct: native enzyme purified from foot muscle of 10-day estivated snails on GTP-agarose; high-phosphate form, sites unknown

[2] = test system: T2, control Otala lactea foot muscle GDH; assay: as above; settings: activation constant (half-maximal activation, not association constant); suboptimal substrates 10 mM L-glutamate, 0.5 mM NAD+; Tris-HCl pH 8.0
T2 construct: native enzyme purified from foot muscle of active (control) snails on GTP-agarose; low-phosphate form, sites unknown

[3] = test system: T2, control Otala lactea foot muscle GDH; assay: NADH absorbance at […] nm, glutamate-synthesizing direction; settings: activation constant (half-maximal activation, not association constant); suboptimal substrates 0.2 mM α-ketoglutarate, 0.15 mM NADH, 40 mM NH4Cl; HEPES pH 7.2
[4] = test system: T2, control Otala lactea foot muscle GDH; assay: as above; settings: inhibitor; suboptimal substrates 0.2 mM α-ketoglutarate, 0.15 mM NADH, 40 mM NH4Cl; HEPES pH 7.2
[5] = test system: T1, 10 day estivated Otala lactea foot muscle GDH; assay: as above; settings: inhibitor; suboptimal substrates 0.2 mM α-ketoglutarate, 0.15 mM NADH, 40 mM NH4Cl; HEPES pH 7.2
[6] = test system: T1, 10 day estivated Otala lactea foot muscle GDH; assay: NADH absorbance at […] nm, glutamate-oxidizing direction; settings: no ADP, Tris-HCl pH 8.0
[7] = test system: T2, control Otala lactea foot muscle GDH; assay: as above; settings: no ADP, Tris-HCl pH 8.0
[8] = test system: T2, control Otala lactea foot muscle GDH; assay: NADH absorbance at […] nm, glutamate-synthesizing direction; settings: no ADP, 0.2 mM NADH, HEPES pH 7.2
[9] = test system: T1, 10 day estivated Otala lactea foot muscle GDH; assay: as above; settings: no ADP; optimal co-substrates 100 mM NH4Cl, 0.2 mM NADH; HEPES pH 7.2
[10] = optimal co-substrate 1.5 mM NAD+
[11] = optimal co-substrate 50 mM L-glutamate

SMILES: N[C@@H](CCC(=O)O)C(=O)O [L-glutamate]
Km [6, 10]: 840 ± 20 µM
Km [7, 10]: 900 ± 20 µM

SMILES: NC(=O)c1ccc[n+]([C@@H]2O[C@H](COP(=O)(O)OP(=O)(O)OC[C@H]3O[C@@H](n4cnc5c(N)ncnc54)[C@H](O)[C@@H]3O)[C@@H](O)[C@H]2O)c1 [NAD^+]
Km [6, 11]: 490 ± 20 µM
Km [7, 11]: 590 ± 80 µM

SMILES: N [NH4 ^+]
Km ([8]; optimal co-substrates 1 mM α-ketoglutarate): 63000 ± 2000 µM

SMILES: O=C(O)CCC(=O)C(=O)O [α-ketoglutarate]
Km [9]: 550 ± 50 µM
Km ([8]; optimal co-substrates 100 mM NH4Cl): 190 ± 30 µM

Further lines, results first:

EC50 [1]: 3.5 ± 0.5 µM
EC50 [2]: 4.7 ± 0.7 µM
SMILES: Nc1ncnc2c1ncn2[C@@H]1O[C@H](COP(=O)(O)OP(=O)(O)O)[C@@H](O)[C@H]1O [ADP]

EC50 [3]: 270 ± 40 µM
SMILES: Nc1ncnc2c1ncn2[C@@H]1O[C@H](COP(=O)(O)O)[C@@H](O)[C@H]1O [AMP]

IC50 [4]: 7000 ± 1000 µM
SMILES: Nc1ncnc2c1ncn2[C@@H]1O[C@H](COP(=O)(O)OP(=O)(O)OP(=O)(O)O)[C@@H](O)[C@H]1O [ATP]

IC50 [4]: 0.34 ± 0.02 µM
IC50 [5]: 0.15 ± 0.02 µM
SMILES: Nc1nc2c(ncn2[C@@H]2O[C@H](COP(=O)(O)OP(=O)(O)OP(=O)(O)O)[C@@H](O)[C@H]2O)c(=O)[nH]1 [GTP]
